We go through three compounds from PubChem BioAssay AID686942 (Broad Institute, 2013).

SMILES strings stand for the structures.

The assay has as its system V. cholerae SLS353 luxOD47E qrr4-GFP fluorescence. The assay can be described thus: LuxO inhibitors, qrr4 GFP production in absence of autoinducers, V. cholerae, confirmatory (AID 686942).
The term AC50 denotes the midpoint of the concentration-response curve, whichever way the signal moves. Regarding `Cn1nc(NC(=O)c2ccco2)c2cc3ccccc3nc21`, the AC50 was 2000 nM. The same measure for `O=C(Nc1nnc(-c2ccc3c(c2)OCCO3)o1)C1CCCCC1`: 2000 nM; for `COc1ccc2cc3c(NC(=O)c4ccco4)nn(C)c3nc2c1`: 2000 nM.
